Experimental data as given in PubChem BioAssay (NCI).
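A five-concentration, 48-hour dose response in 96-well plates underlies each endpoint, interpolated linearly between surrounding concentrations. GI50 = concentration required for 50% inhibition of growth. TGI is the concentration that stops growth completely.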

Tests used:
Assay in all cases: DTP human tumour cell line panel, 48 h
786-0 renal = test system: 786-0 renal
A498 renal = test system: A498 renal
A549 NSCLC = test system: A549 NSCLC
ACHN renal = test system: ACHN renal
BT-549 breast = test system: BT-549 breast
CAKI-1 renal = test system: CAKI-1 renal
CCRF-CEM leukemia = test system: CCRF-CEM leukemia
COLO 205 colon = test system: COLO 205 colon
DU-145 prostate = test system: DU-145 prostate
EKVX NSCLC = test system: EKVX NSCLC
HCC-2998 colon = test system: HCC-2998 colon
HCT-116 colon = test system: HCT-116 colon
HCT-15 colon = test system: HCT-15 colon
HOP-62 NSCLC = test system: HOP-62 NSCLC
HOP-92 NSCLC = test system: HOP-92 NSCLC
HS 578T breast = test system: HS 578T breast
HT29 colon = test system: HT29 colon
IGROV1 ovarian = test system: IGROV1 ovarian
K-562 leukemia = test system: K-562 leukemia
KM12 colon = test system: KM12 colon
LOX IMVI melanoma = test system: LOX IMVI melanoma
MALME-3M melanoma = test system: MALME-3M melanoma
MCF7 breast = test system: MCF7 breast
MDA-MB-231 breast = test system: MDA-MB-231 breast
MDA-MB-435 = test system: MDA-MB-435
MOLT-4 leukemia = test system: MOLT-4 leukemia
NCI-H226 lung = test system: NCI-H226 lung
NCI-H23 lung = test system: NCI-H23 lung
NCI-H460 lung = test system: NCI-H460 lung
NCI-H522 lung = test system: NCI-H522 lung
NCI/ADR-RES ovarian = test system: NCI/ADR-RES ovarian
OVCAR-3 ovarian = test system: OVCAR-3 ovarian
OVCAR-4 ovarian = test system: OVCAR-4 ovarian
OVCAR-5 ovarian = test system: OVCAR-5 ovarian
OVCAR-8 ovarian = test system: OVCAR-8 ovarian
PC-3 prostate = test system: PC-3 prostate
RPMI-8226 leukemia = test system: RPMI-8226 leukemia
RXF 393 renal = test system: RXF 393 renal
SF-268 CNS = test system: SF-268 CNS
SF-295 CNS = test system: SF-295 CNS
SF-539 CNS = test system: SF-539 CNS
SK-MEL-2 melanoma = test system: SK-MEL-2 melanoma
SK-MEL-28 melanoma = test system: SK-MEL-28 melanoma
SK-MEL-5 melanoma = test system: SK-MEL-5 melanoma
SK-OV-3 ovarian = test system: SK-OV-3 ovarian
SN12C renal = test system: SN12C renal
SNB-19 CNS = test system: SNB-19 CNS
SNB-75 CNS = test system: SNB-75 CNS
SR leukemia = test system: SR leukemia
SW-620 colon = test system: SW-620 colon
T-47D breast = test system: T-47D breast
TK-10 renal = test system: TK-10 renal
U251 CNS = test system: U251 CNS
UACC-257 melanoma = test system: UACC-257 melanoma
UACC-62 melanoma = test system: UACC-62 melanoma
UO-31 renal = test system: UO-31 renal
HL-60(TB) leukemia = test system: HL-60(TB) leukemia
M14 melanoma = test system: M14 melanoma

Structure (SMILES): OCCCCC#Cc1ccccc1C#Cc1ccccn1
- GI50 (786-0 renal): 38.3 µM
- TGI (786-0 renal): > 100 µM
- GI50 (A498 renal): 8.99 µM
- TGI (A498 renal): 49.7 µM
- GI50 (A549 NSCLC): 33.6 µM
- TGI (A549 NSCLC): > 100 µM
- GI50 (ACHN renal): 31.8 µM
- TGI (ACHN renal): > 100 µM
- GI50 (BT-549 breast): 15.8 µM
- TGI (BT-549 breast): 47.4 µM
- GI50 (CAKI-1 renal): 28.6 µM
- TGI (CAKI-1 renal): > 100 µM
- GI50 (CCRF-CEM leukemia): 31.4 µM
- TGI (CCRF-CEM leukemia): > 100 µM
- GI50 (COLO 205 colon): 31.1 µM
- TGI (COLO 205 colon): > 100 µM
- GI50 (DU-145 prostate): 9.78 µM
- TGI (DU-145 prostate): 74.6 µM
- GI50 (EKVX NSCLC): 27.7 µM
- TGI (EKVX NSCLC): 67 µM
- GI50 (HCC-2998 colon): 26.4 µM
- TGI (HCC-2998 colon): 72.9 µM
- GI50 (HCT-116 colon): 30.8 µM
- TGI (HCT-116 colon): > 100 µM
- GI50 (HCT-15 colon): 29.8 µM
- TGI (HCT-15 colon): > 100 µM
- GI50 (HOP-62 NSCLC): 29.4 µM
- TGI (HOP-62 NSCLC): > 100 µM
- GI50 (HOP-92 NSCLC): 26.6 µM
- TGI (HOP-92 NSCLC): 94.6 µM
- GI50 (HS 578T breast): 25.6 µM
- TGI (HS 578T breast): 88.3 µM
- GI50 (HT29 colon): 26.1 µM
- TGI (HT29 colon): > 100 µM
- GI50 (IGROV1 ovarian): 27.2 µM
- TGI (IGROV1 ovarian): > 100 µM
- GI50 (K-562 leukemia): 29 µM
- TGI (K-562 leukemia): > 100 µM
- GI50 (KM12 colon): 29.7 µM
- TGI (KM12 colon): > 100 µM
- GI50 (LOX IMVI melanoma): 27.7 µM
- TGI (LOX IMVI melanoma): > 100 µM
- GI50 (MALME-3M melanoma): 27.1 µM
- TGI (MALME-3M melanoma): > 100 µM
- GI50 (MCF7 breast): 37.8 µM
- TGI (MCF7 breast): > 100 µM
- GI50 (MDA-MB-231 breast): 21 µM
- TGI (MDA-MB-231 breast): 64.9 µM
- GI50 (MDA-MB-435): 25.1 µM
- TGI (MDA-MB-435): 79.4 µM
- GI50 (MOLT-4 leukemia): 21.4 µM
- TGI (MOLT-4 leukemia): > 100 µM
- GI50 (NCI-H226 lung): 31.3 µM
- TGI (NCI-H226 lung): > 100 µM
- GI50 (NCI-H23 lung): 25.2 µM
- TGI (NCI-H23 lung): > 100 µM
- GI50 (NCI-H460 lung): 24.8 µM
- TGI (NCI-H460 lung): 76.4 µM
- GI50 (NCI-H522 lung): 22.2 µM
- TGI (NCI-H522 lung): 56 µM
- GI50 (NCI/ADR-RES ovarian): 27.3 µM
- TGI (NCI/ADR-RES ovarian): 77.4 µM
- GI50 (OVCAR-3 ovarian): 26.1 µM
- TGI (OVCAR-3 ovarian): 77.3 µM
- GI50 (OVCAR-4 ovarian): 30.3 µM
- TGI (OVCAR-4 ovarian): > 100 µM
- GI50 (OVCAR-5 ovarian): > 100 µM
- TGI (OVCAR-5 ovarian): > 100 µM
- GI50 (OVCAR-8 ovarian): 32.4 µM
- TGI (OVCAR-8 ovarian): > 100 µM
- GI50 (PC-3 prostate): 24.6 µM
- TGI (PC-3 prostate): 73.9 µM
- GI50 (RPMI-8226 leukemia): 16.4 µM
- TGI (RPMI-8226 leukemia): 37.4 µM
- GI50 (RXF 393 renal): 25 µM
- TGI (RXF 393 renal): 62.3 µM
- GI50 (SF-268 CNS): 29.8 µM
- TGI (SF-268 CNS): > 100 µM
- GI50 (SF-295 CNS): 21.8 µM
- TGI (SF-295 CNS): 65.2 µM
- GI50 (SF-539 CNS): 17.8 µM
- TGI (SF-539 CNS): 42.7 µM
- GI50 (SK-MEL-2 melanoma): 41.6 µM
- TGI (SK-MEL-2 melanoma): > 100 µM
- GI50 (SK-MEL-28 melanoma): 31 µM
- TGI (SK-MEL-28 melanoma): > 100 µM
- GI50 (SK-MEL-5 melanoma): 19.1 µM
- TGI (SK-MEL-5 melanoma): 41.4 µM
- GI50 (SK-OV-3 ovarian): > 100 µM
- TGI (SK-OV-3 ovarian): > 100 µM
- GI50 (SN12C renal): 32.1 µM
- TGI (SN12C renal): > 100 µM
- GI50 (SNB-19 CNS): 42.1 µM
- TGI (SNB-19 CNS): > 100 µM
- GI50 (SNB-75 CNS): 14.9 µM
- TGI (SNB-75 CNS): 51.5 µM
- GI50 (SR leukemia): 25.5 µM
- TGI (SR leukemia): 96.2 µM
- GI50 (SW-620 colon): 45.7 µM
- TGI (SW-620 colon): > 100 µM
- GI50 (T-47D breast): 15.9 µM
- TGI (T-47D breast): 80.6 µM
- GI50 (TK-10 renal): 61 µM
- TGI (TK-10 renal): > 100 µM
- GI50 (U251 CNS): 31.2 µM
- TGI (U251 CNS): > 100 µM
- GI50 (UACC-257 melanoma): 28.8 µM
- TGI (UACC-257 melanoma): 87.2 µM
- GI50 (UACC-62 melanoma): 23.1 µM
- TGI (UACC-62 melanoma): > 100 µM
- GI50 (UO-31 renal): 32.3 µM
- TGI (UO-31 renal): > 100 µM

Structure (SMILES): CC(=O)OC1CN2CCC1CC2 (centres undefined)
- TGI (786-0 renal): > 100 µM
- TGI (A498 renal): > 100 µM
- TGI (A549 NSCLC): > 100 µM
- TGI (ACHN renal): > 100 µM
- TGI (BT-549 breast): > 100 µM
- TGI (CAKI-1 renal): > 100 µM
- TGI (CCRF-CEM leukemia): > 100 µM
- TGI (COLO 205 colon): > 100 µM
- TGI (DU-145 prostate): > 100 µM
- TGI (EKVX NSCLC): > 100 µM
- TGI (HCC-2998 colon): > 100 µM
- TGI (HCT-116 colon): > 100 µM
- TGI (HCT-15 colon): > 100 µM
- TGI (HL-60(TB) leukemia): > 100 µM
- TGI (HOP-62 NSCLC): > 100 µM
- TGI (HOP-92 NSCLC): > 100 µM
- TGI (HS 578T breast): > 100 µM
- TGI (HT29 colon): > 100 µM
- TGI (IGROV1 ovarian): > 100 µM
- TGI (K-562 leukemia): > 100 µM
- TGI (KM12 colon): > 100 µM
- TGI (LOX IMVI melanoma): > 100 µM
- TGI (M14 melanoma): > 100 µM
- TGI (MALME-3M melanoma): > 100 µM
- TGI (MCF7 breast): > 100 µM
- TGI (MDA-MB-231 breast): > 100 µM
- TGI (MDA-MB-435): > 100 µM
- TGI (MOLT-4 leukemia): > 100 µM
- TGI (NCI-H226 lung): > 100 µM
- TGI (NCI-H23 lung): > 100 µM
- TGI (NCI-H460 lung): > 100 µM
- TGI (NCI-H522 lung): > 100 µM
- TGI (NCI/ADR-RES ovarian): > 100 µM
- TGI (OVCAR-3 ovarian): > 100 µM
- TGI (OVCAR-4 ovarian): > 100 µM
- TGI (OVCAR-5 ovarian): > 100 µM
- TGI (OVCAR-8 ovarian): > 100 µM
- TGI (PC-3 prostate): > 100 µM
- TGI (RPMI-8226 leukemia): > 100 µM
- TGI (RXF 393 renal): > 100 µM
- TGI (SF-268 CNS): > 100 µM
- TGI (SF-295 CNS): > 100 µM
- TGI (SF-539 CNS): > 100 µM
- TGI (SK-MEL-2 melanoma): > 100 µM
- TGI (SK-MEL-28 melanoma): > 100 µM
- TGI (SK-MEL-5 melanoma): > 100 µM
- TGI (SK-OV-3 ovarian): > 100 µM
- TGI (SN12C renal): > 100 µM
- TGI (SNB-19 CNS): > 100 µM
- TGI (SR leukemia): > 100 µM
- TGI (SW-620 colon): > 100 µM
- TGI (T-47D breast): > 100 µM
- TGI (TK-10 renal): > 100 µM
- TGI (U251 CNS): > 100 µM
- TGI (UACC-257 melanoma): > 100 µM
- TGI (UACC-62 melanoma): > 100 µM
- TGI (UO-31 renal): > 100 µM
